From paper PMC9229160 (Pharmaceuticals, 2022)

Molecular target: T1, human kappa-opioid receptor (KOR) (Homo sapiens, UniProt P41145)
T1 construct: gene OPRK1
Experiment: [3H]U69, […] radioligand competition binding, CHO-hKOR membranes; […]GTPγS antagonism (Ke […])

Cc1c(NC(=O)c2ccc(Cl)cc2)cc(-c2ccccc2)n1CCCN1CCOCC1 [Compound A]
Ki: 1.35 ± 0.32 µM
